Measurements: US10221177B2 (HYDRA BIOSCIENCES, INC., priority 2014, dated 2019)

Biological target: human TRPA1 (Homo sapiens (Human), UniProt O75762)
Assay: In vitro inhibition of human TRPA1, whole cell patch configuration
Format: cell-based
Conditions: current activation 10 μM AITC, tested concentrations 320 pM to 3.2 μM, read-out: hTRPA1 IC50
Description: All currents were recorded in whole-cell configuration using EPC-9 and EPC-10 amplifiers and Patchmaster software (HEKA) or similar. […] The standard bath solution contained 150 mM NaCl, 10 mM HEPES, 10 mM glucose, 4.5 mM KCl, 1 mM EGTA, 3 mM MgCl2, with pH adjusted to 7.4 with NaOH. In some instances, 2 mM CaCl2 was added in place of EGTA and the concentration of MgCl2 was reduced to 1 mM.
Data were collected either by continuous recordings at −60 mV or by applying voltage ramps from a holding potential of −40 mV every 4 s. Continuous recordings were collected at 400 Hz and digitally filtered off-line at 10 Hz for presentation. Voltage ramps were applied from −100 mV or −80 mV to +100 mV or +80 mV over the course of 400 ms, and data were collected at 10 kHz and filtered at 2.9 kHz. Inward and outward currents were analyzed from the ramps at −80 and 80 mV, respectively. Liquid junction potential correction was not used.
Solutions were switched using a gravity-fed continuous focal perfusion system. To achieve rapid temperature changes, two temperature control, and perfusion systems were employed simultaneously. […] Temperatures were confirmed using a thermistor (Warner Instruments, TA-29), with temperatures at the recorded cell estimated to be within +/−2° C. of those reported.
The antagonist effects of compounds of Formula (I) against human TRPA1 (“hTRPA1”) in a whole cell patch configuration were evaluated using the in vitro assay described above.

Chain of human TRPA1 (O75762 whole entry): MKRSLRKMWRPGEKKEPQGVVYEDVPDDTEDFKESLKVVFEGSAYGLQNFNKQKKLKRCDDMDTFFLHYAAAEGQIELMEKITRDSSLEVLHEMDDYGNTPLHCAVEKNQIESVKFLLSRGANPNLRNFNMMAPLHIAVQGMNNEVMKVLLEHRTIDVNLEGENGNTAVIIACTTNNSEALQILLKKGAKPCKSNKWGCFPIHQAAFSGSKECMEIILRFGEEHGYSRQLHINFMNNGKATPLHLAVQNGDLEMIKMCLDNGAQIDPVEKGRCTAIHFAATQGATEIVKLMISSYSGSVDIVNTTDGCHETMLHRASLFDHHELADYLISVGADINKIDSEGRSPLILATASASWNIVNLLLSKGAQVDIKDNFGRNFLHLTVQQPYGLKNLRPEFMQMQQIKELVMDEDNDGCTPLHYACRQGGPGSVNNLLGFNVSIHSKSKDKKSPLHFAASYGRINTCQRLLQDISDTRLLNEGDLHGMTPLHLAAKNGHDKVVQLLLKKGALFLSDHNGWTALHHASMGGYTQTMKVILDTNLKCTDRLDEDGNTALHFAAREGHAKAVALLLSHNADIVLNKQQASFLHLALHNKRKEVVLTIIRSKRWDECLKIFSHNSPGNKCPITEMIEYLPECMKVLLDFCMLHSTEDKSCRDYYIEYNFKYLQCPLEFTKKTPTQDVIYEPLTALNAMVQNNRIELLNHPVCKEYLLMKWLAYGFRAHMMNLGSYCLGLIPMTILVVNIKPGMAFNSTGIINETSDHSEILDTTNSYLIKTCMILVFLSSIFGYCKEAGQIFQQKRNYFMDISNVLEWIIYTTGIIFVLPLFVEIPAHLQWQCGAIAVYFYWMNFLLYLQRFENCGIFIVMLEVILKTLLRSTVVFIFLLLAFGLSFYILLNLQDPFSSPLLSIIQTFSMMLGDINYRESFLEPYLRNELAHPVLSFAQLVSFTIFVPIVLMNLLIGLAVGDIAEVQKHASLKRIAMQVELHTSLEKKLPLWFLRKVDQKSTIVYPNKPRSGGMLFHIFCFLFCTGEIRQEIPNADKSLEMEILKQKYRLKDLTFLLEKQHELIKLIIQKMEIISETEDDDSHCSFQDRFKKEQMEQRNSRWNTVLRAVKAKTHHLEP

| Structure (SMILES) | IC50 |
| --- | --- |
| CC(=O)Cn1c(=O)c2c(ncn2[C@@H](C)C(=O)Nc2cncc(-c3ccc(N4CC5C(C4)C5(F)F)nc3)n2)n(C)c1=O (stereo partly drawn) [Compound 76, (2S)—N-(6-(6-(6,6-difluoro-3-azabicyclo[3.1.0]hexan-3-yl)pyridin-3-yl)pyrazin-2-yl)-2-(3-methyl-2,6-dioxo-1-(2-oxopropyl)-2,3-dihydro-1H-purin-7(6H)-yl)propanamide] | 10 nM |
| Cc1cc(Cn2c(=O)c3c(ncn3CC(=O)Nc3cccc(N4CCC(C(F)(F)F)CC4)n3)n(C)c2=O)no1 [Compound 202, 2-(3-methyl-1-((5-methylisoxazol-3-yl)methyl)-2,6-dioxo-2,3-dihydro-1H-purin-7(6H)-yl)-N-(6-(4-(trifluoromethyl)piperidin-1-yl)pyridin-2-yl)acetamide] | 26 nM |
| Cc1noc(Cn2c(=O)c3c(ncn3[C@@H](C)C(=O)Nc3csc(-c4cnc(C)c(C(F)(F)F)c4)n3)n(C)c2=O)n1 [Compound 108, (S)-2-(3-methyl-1-((3-methyl-1,2,4-oxadiazol-5-yl)methyl)-2,6-dioxo-2,3-dihydro-1H-purin-7(6H)-yl)-N-(2-(6-methyl-5-(trifluoromethyl)pyridin-3-yl)thiazol-4-yl)propanamide] | 1 nM |
| CCC(=O)Cn1c(=O)c2c(ncn2CC(=O)Nc2csc(-c3cnc(C(F)(F)F)c(C)c3)n2)n(C)c1=O [Compound 249, 2-(3-methyl-2,6-dioxo-1-(2-oxobutyl)-2,3-dihydro-1H-purin-7(6H)-yl)-N-(2-(5-methyl-6-(trifluoromethyl)pyridin-3-yl)thiazol-4-yl)acetamide] | 6 nM |
| CCCC(=O)Cn1c(=O)c2c(ncn2[C@@H](C)C(=O)Nc2cccc(-c3cnc(C(F)(F)F)nc3)n2)n(C)c1=O [Compound 52, (S)-2-(3-methyl-2,6-dioxo-1-(2-oxopentyl)-2,3-dihydro-1H-purin-7(6H)-yl)-N-(6-(2-(trifluoromethyl)pyrimidin-5-yl)pyridin-2-yl)propanamide] | 23 nM |
| C[C@@H](C(=O)Nc1cccc(-c2ccc(C(F)(F)F)nc2)n1)n1cnc2c1c(=O)n(Cc1ccon1)c(=O)n2C [Compound 95, (S)-2-(1-(isoxazol-3-ylmethyl)-3-methyl-2,6-dioxo-2,3-dihydro-1H-purin-7(6H)-yl)-N-(6′-(trifluoromethyl)-[2,3′-bipyridin]-6-yl)propanamide] | 9 nM |
| Cc1cc(Cn2c(=O)c3c(ncn3[C@@H](C)C(=O)Nc3cncc(-c4cnc(C(F)(F)F)c(C)c4)n3)n(C)c2=O)no1 [Compound 130, (S)-2-(3-methyl-1-((5-methylisoxazol-3-yl)methyl)-2,6-dioxo-2,3-dihydro-1H-purin-7(6H)-yl)-N-(6-(5-methyl-6-(trifluoromethyl)pyridin-3-yl)pyrazin-2-yl)propanamide] | 8 nM |
| Cc1cc(Cn2c(=O)c3c(ncn3[C@@H](C)C(=O)Nc3cccc(-c4cnc(C)c(C(F)(F)F)c4)n3)n(C)c2=O)no1 [Compound 126, (S)-2-(3-methyl-1-((5-methylisoxazol-3-yl)methyl)-2,6-dioxo-2,3-dihydro-1H-purin-7(6H)-yl)-N-(6′-methyl-5′-(trifluoromethyl)-[2,3′-bipyridin]-6-yl)propanamide] | 1 nM |
| CC(=O)Cn1c(=O)c2c(ncn2[C@@H](C)C(=O)Nc2ccnc(-c3cnc(N4CC5CC5C4)nc3)n2)n(C)c1=O (stereo partly drawn) [Compound 143, (2S)—N-(2′-(3-azabicyclo[3.1.0]hexan-3-yl)-2,5′-bipyrimidin-4-yl)-2-(3-methyl-2,6-dioxo-1-(2-oxopropyl)-2,3-dihydro-1H-purin-7(6H)-yl)propanamide] | 20 nM |
| CC#CCn1c(=O)c2c(ncn2[C@@H](C)C(=O)Nc2csc(-c3ccc(N4CC5CC5C4)nc3)n2)n(C)c1=O (stereo partly drawn) [Compound 263, (2S)—N-(2-(6-(3-azabicyclo[3.1.0]hexan-3-yl)pyridin-3-yl)thiazol-4-yl)-2-(1-(but-2-yn-1-yl)-3-methyl-2,6-dioxo-2,3-dihydro-1H-purin-7(6H)-yl)propanamide] | 4 nM |
| CCC(=O)Cn1c(=O)c2c(ncn2CC(=O)Nc2cncc(-c3cnc(C(F)(F)F)c(C)c3)n2)n(C)c1=O [Compound 233, 2-(3-methyl-2,6-dioxo-1-(2-oxobutyl)-2,3-dihydro-1H-purin-7(6H)-yl)-N-(6-(5-methyl-6-(trifluoromethyl)pyridin-3-yl)pyrazin-2-yl)acetamide] | 10 nM |
| CC(=O)Cn1c(=O)c2c(ncn2[C@@H](C)C(=O)Nc2cccc(-c3ccc(C(F)(F)F)nc3)n2)n(C)c1=O [Compound 2, (S)-2-(3-methyl-2,6-dioxo-1-(2-oxopropyl)-2,3-dihydro-1H-purin-7(6H)-yl)-N-(6′-(trifluoromethyl)-[2,3′-bipyridin]-6-yl)propanamide] | 21 nM |
| Cc1cc(Cn2c(=O)c3c(ncn3[C@@H](C)C(=O)Nc3cccc(-c4noc(C(F)(F)F)n4)n3)n(C)c2=O)no1 [Compound 78] | 86 nM |
| C[C@@H](C(=O)Nc1cccc(-c2cnc(N3CC4C(C3)C4(F)F)nc2)n1)n1cnc2c1c(=O)n(CC#N)c(=O)n2C (stereo partly drawn) [Compound 30, (2S)-2-(1-(cyanomethyl)-3-methyl-2,6-dioxo-2,3-dihydro-1H-purin-7(6H)-yl)-N-(6-(2-(6,6-difluoro-3-azabicyclo[3.1.0]hexan-3-yl)pyrimidin-5-yl)pyridin-2-yl)propanamide] | 3 nM |
| CC(=O)Cn1c(=O)c2c(ncn2[C@@H](C)C(=O)Nc2cncc(-c3cnc(C)c(C(F)(F)F)c3)n2)n(C)c1=O [Compound 109, (S)-2-(3-methyl-2,6-dioxo-1-(2-oxopropyl)-2,3-dihydro-1H-purin-7(6H)-yl)-N-(6-(6-methyl-5-(trifluoromethyl)pyridin-3-yl)pyrazin-2-yl)propanamide] | 8 nM |

More lines, in order of falling IC50, values ahead:

| IC50 | Structure (SMILES) |
| --- | --- |
| 3250 nM | COc1cc(NC(=O)Cn2cnc3c2c(=O)n(Cc2cc(C)on2)c(=O)n3C)nc(C(F)(F)F)c1 [Compound 204, N-(4-methoxy-6-(trifluoromethyl)pyridin-2-yl)-2-(3-methyl-1-((5-methylisoxazol-3-yl)methyl)-2,6-dioxo-2,3-dihydro-1H-purin-7(6H)-yl)acetamide] |
| 22 nM | Cc1ncc(-c2nc(NC(=O)[C@H](C)n3cnc4c3c(=O)n(CC(F)(F)F)c(=O)n4C)cs2)cc1C(F)(F)F [Compound 162, (S)-2-(3-methyl-2,6-dioxo-1-(2,2,2-trifluoroethyl)-2,3-dihydro-1H-purin-7(6H)-yl)-N-(2-(6-methyl-5-(trifluoromethyl)pyridin-3-yl)thiazol-4-yl)propanamide] |
| 17 nM | Cc1cc(Cn2c(=O)c3c(ncn3CC(=O)Nc3cccc(-c4cnc(C)c(F)c4)n3)n(C)c2=O)no1 [Compound 228, N-(5′-fluoro-6′-methyl-[2,3′-bipyridin]-6-yl)-2-(3-methyl-1-((5-methylisoxazol-3-yl)methyl)-2,6-dioxo-2,3-dihydro-1H-purin-7(6H)-yl)acetamide] |
| 7 nM | COCC(=O)Cn1c(=O)c2c(ncn2[C@@H](C)C(=O)Nc2cccc(-c3cnc(N4CC5CC5C4)nc3)n2)n(C)c1=O (stereo partly drawn) [Compound 165, (2S)—N-(6-(2-(3-azabicyclo[3.1.0]hexan-3-yl)pyrimidin-5-yl)pyridin-2-yl)-2-(1-(3-methoxy-2-oxopropyl)-3-methyl-2,6-dioxo-2,3-dihydro-1H-purin-7(6H)-yl)propanamide] |
| 5 nM | CCC(=O)Cn1c(=O)c2c(ncn2[C@@H](C)C(=O)Nc2ccnc(-c3ccc(N4CC5C(C4)C5(F)F)nc3)n2)n(C)c1=O (stereo partly drawn) [Compound 70, (2S)—N-(2-(6-(6,6-difluoro-3-azabicyclo[3.1.0]hexan-3-yl)pyridin-3-yl)pyrimidin-4-yl)-2-(3-methyl-2,6-dioxo-1-(2-oxobutyl)-2,3-dihydro-1H-purin-7(6H)-yl)propanamide] |
| 2 nM | CC(=O)Cn1c(=O)c2c(ncn2[C@@H](C)C(=O)Nc2csc(-c3ccc(Cl)c(Cl)c3)n2)n(C)c1=O [Compound 20, (S)—N-(2-(3,4-dichlorophenyl)thiazol-4-yl)-2-(3-methyl-2,6-dioxo-1-(2-oxopropyl)-2,3-dihydro-1H-purin-7(6H)-yl)propanamide] |
| 2 nM | Cc1cc(Cn2c(=O)c3c(ncn3[C@@H](C)C(=O)Nc3csc(-c4cnc(C)c(Cl)c4)n3)n(C)c2=O)no1 [Compound 91] |
| 1 nM | CCC(=O)Cn1c(=O)c2c(ncn2[C@@H](C)C(=O)Nc2cccc(-c3cnc(N4CC5C(C4)C5(F)F)nc3)n2)n(C)c1=O (stereo partly drawn) [Compound 26, (2S)—N-(6-(2-(6,6-difluoro-3-azabicyclo[3.1.0]hexan-3-yl)pyrimidin-5-yl)pyridin-2-yl)-2-(3-methyl-2,6-dioxo-1-(2-oxobutyl)-2,3-dihydro-1H-purin-7(6H)-yl)propanamide] |
| 1 nM | CC#CCn1c(=O)c2c(ncn2[C@@H](C)C(=O)Nc2csc(-c3cnc(N4CCC[C@@H]4C(F)(F)F)nc3)n2)n(C)c1=O [Compound 157, (S)-2-(1-(but-2-ynyl)-3-methyl-2,6-dioxo-2,3-dihydro-1H-purin-7(6H)-yl)-N-(2-(2-((R)-2-(trifluoromethyl)pyrrolidin-1-yl)pyrimidin-5-yl)thiazol-4-yl)propanamide] |
